In patent publication US9040663B2, “Melanocortin receptor-specific peptides” (AstraZeneca AB, priority 2009, dated 2015):
Read-outs that look alike come from different tables or passages of the source.

Assays:
hMC4-R [1] = biological target: T1, hMC4-R (Homo sapiens (Human), UniProt P32245); assay: High and low density hMC4-R functional assay (cAMP, HEK293-T-REx-MC4-R cells); assay type: cell-based; settings: for Emax: NDP-α-MSH = 100%, read-out: Intrinsic Activity (%)
Description: The cells were then dispensed into 96-well plates (BD 353916) in 198 μL (about 5×10^4) cells/well and incubated for 10 minutes at 37° C. The compound to be tested was diluted with DMSO to a final concentration of 1 mM. […] 120 μL of the 1 mM compound stock was pipetted in the second column on the plate. […] All assay samples were run in duplicate (i.e. each sample was in two low dox and two high dox plates, respectively). The plates were gently shaken and incubated for 15 minutes at 37° C.

hMC4-R [2] = biological target: T1, hMC4-R; assay: Competitive inhibition binding assay using [I125]-NDP-α-MSH, hMC4-R; settings: membranes of HEK-293 cells expressing recombinant hMC4-R, read-out: MC4-R Ki
Description: 7.1 Competitive Inhibition Assay using [I^125]-NDP-α-MSH.
A competitive inhibition binding assay was performed for exemplified peptides according to the invention using membrane homogenates prepared from HEK-293 cells that express recombinant hMC4-R, hMC3-R, or hMC5-R, and from B-16 mouse melanoma cells (containing endogenous MC1-R). In some instances, HEK-293 cells that express recombinant hMC1-R were employed. Assays were performed in 96 well GF/B Millipore multiscreen filtration plates (MAFB NOB10) pre-coated with 0.5% bovine serum albumin (Fraction V). Membrane homogenates were incubated with 0.2 nM (for hMC4-R) 0.4 nM (for MC3-R and MC5-R) or 0.1 nM (for mouse B16 MC1-R or hMC1-R) [I^125]-NDP-α-MSH (Perkin Elmer) and increasing concentrations of test peptides of the present invention in buffer containing 25 mM HEPES buffer (pH 7.5) with 100 mM NaCl, 2 mM CaCl2, 2 mM MgCl2, 0.3 mM 1,10-phenanthroline, and 0.2% bovine serum albumin. After incubation for 60 minutes at 37° C., the assay mixture was filtered and the membranes washed three times with ice-cold buffer. Filters were dried and counted in a gamma counter for bound radioactivity. […] Maximal specific binding (100%) was defined as the difference in radioactivity (cpm) bound to cell membranes in the absence and presence of 1 μM NDP-α-MSH. […] Each assay was conducted in triplicate and the actual mean values are described, with results less than 0% reported as 0%. Ki values for test peptides of the present invention were determined using Graph-Pad Prism® curve-fitting software.

[3] = 0.1 ng/mL Doxycycline (low density hMC4-R system)
[4] = 10 ng/mL Doxycycline (high density hMC4-R system)

T1 sequence (P32245 whole entry): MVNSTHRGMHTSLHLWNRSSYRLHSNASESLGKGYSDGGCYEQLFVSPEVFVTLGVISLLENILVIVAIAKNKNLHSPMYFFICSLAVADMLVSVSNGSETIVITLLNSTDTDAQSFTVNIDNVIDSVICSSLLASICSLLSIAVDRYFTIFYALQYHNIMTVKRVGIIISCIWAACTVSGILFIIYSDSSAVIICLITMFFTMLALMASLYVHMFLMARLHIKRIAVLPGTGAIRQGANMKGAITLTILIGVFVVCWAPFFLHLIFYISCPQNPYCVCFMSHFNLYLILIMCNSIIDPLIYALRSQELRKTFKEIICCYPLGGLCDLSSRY

EC50 (hMC4-R [1]; [3]) | Emax (hMC4-R [1]; [3]) | EC50 (hMC4-R [1]; [4]) | Emax (hMC4-R [1]; [4]) | Ki (hMC4-R [2]) | Compound
 | 9% | 500 pM | 84% | 6000 pM | CC(=O)N[C@@H](CCCNC(=N)N)C(=O)N[C@H]1CCC(=O)NCCC[C@@H](C(N)=O)NC(=O)[C@H](Cc2c[nH]c3ccccc23)NC(=O)[C@H](CCCNC(=N)N)NC(=O)[C@@H](Cc2ccc(C#N)cc2)NC(=O)[C@H](C(C)C)NC1=O [Example 42, Ac-Arg-cyclo(Glu-Val-D-Phe(4-CN)-Arg-Trp-Orn)-NH2]
210 pM | 94% | 85 pM | 94% | 1000 pM | CC(=O)N[C@H](CCCNC(=N)N)C(=O)N[C@H]1CCCNC(=O)CC[C@@H](C(N)=O)NC(=O)[C@H](Cc2c[nH]c3ccccc23)NC(=O)[C@H](CCCNC(=N)N)NC(=O)[C@@H](Cc2ccccc2Cl)NC(=O)[C@H](Cc2c[nH]cn2)NC1=O [Example 50, Ac-D-Arg-cyclo(Orn-His-D-Phe(2-Cl)-Arg-Trp-Glu)-NH2]
75 pM | 56% | 75 pM | 92% | 250 pM | CC(=O)N[C@H](CCCNC(=N)N)C(=O)N[C@H]1CCCNC(=O)CC[C@@H](C(N)=O)NC(=O)[C@H](Cc2c[nH]c3ccccc23)NC(=O)[C@H](CCCNC(=N)N)NC(=O)[C@@H](Cc2ccc(F)c(F)c2)NC(=O)[C@H](Cc2c[nH]cn2)NC1=O [Example 54, Ac-D-Arg-cyclo(Orn-His-D-Phe(3,4-diF)-Arg-Trp-Glu)-NH2]
600 pM | 90% | 100 pM | 98% | 7000 pM | CC(=O)N[C@@H](CCCNC(=N)N)C(=O)N[C@H]1CCC(=O)NCCC[C@@H](C(N)=O)NC(=O)[C@H](Cc2c[nH]c3ccccc23)NC(=O)[C@H](CCCNC(=N)N)NC(=O)[C@@H](Cc2ccccc2F)NC(=O)[C@H](CCC(N)=O)NC1=O [Example 59, Ac-Arg-cyclo(Glu-Gln-D-Phe(2-F)-Arg-Trp-Orn)-NH2]
 | 6% | 950 pM | 89% | 4000 pM | CC(=O)N[C@@H](CCCNC(=N)N)C(=O)N[C@H]1CCC(=O)NCCC[C@@H](C(N)=O)NC(=O)[C@H](Cc2c[nH]c3ccccc23)NC(=O)[C@H](CCCNC(=N)N)NC(=O)[C@@H](Cc2cccc(Cl)c2)NC(=O)[C@H](CN)NC1=O [Example 61, Ac-Arg-cyclo(Glu-Dap-D-Phe(3-Cl)-Arg-Trp-Orn)-NH2]
16000 pM | 23% | 470 pM | 84% | 9000 pM | CC(=O)N[C@@H](CCCNC(=N)N)C(=O)N[C@H]1CCC(=O)NCCC[C@@H](C(N)=O)NC(=O)[C@H](Cc2c[nH]c3ccccc23)NC(=O)[C@H](CCCNC(=N)N)NC(=O)[C@@H](Cc2ccccc2Cl)NC(=O)[C@H](CN)NC1=O [Example 62, Ac-Arg-cyclo(Glu-Dap-D-Phe(2-Cl)-Arg-Trp-Orn)-NH2]
400 pM | 64% | 100 pM | 91% | 3000 pM | CC(=O)N[C@@H](CCCNC(=N)N)C(=O)N[C@H]1CCCNC(=O)CC[C@@H](C(N)=O)NC(=O)[C@H](Cc2c[nH]c3ccccc23)NC(=O)[C@H](CCCNC(=N)N)NC(=O)[C@@H](Cc2ccc(F)cc2)NC(=O)[C@H](CC(N)=O)NC1=O [Example 70, Ac-Arg-cyclo(Orn-Asn-D-Phe(4-F)-Arg-Trp-Glu)-NH2]
3000 pM | 11% | 350 pM | 84% | 4000 pM | CC(=O)N[C@@H](CCCNC(=N)N)C(=O)N[C@H]1CCCNC(=O)CC[C@@H](C(N)=O)NC(=O)[C@H](Cc2c[nH]c3ccccc23)NC(=O)[C@H](CCCNC(=N)N)NC(=O)[C@@H](Cc2cccc(C)c2)NC(=O)[C@H](CC(N)=O)NC1=O [Example 72, Ac-Arg-cyclo(Orn-Asn-D-Phe(3-Me)-Arg-Trp-Glu)-NH2]
 | 86% |  | 102% | 4000 pM | CC(=O)N[C@@H](CCCNC(=N)N)C(=O)N[C@H]1CCC(=O)NCCC[C@@H](C(N)=O)NC(=O)[C@H](Cc2c[nH]c3ccccc23)NC(=O)[C@H](CCCNC(=N)N)NC(=O)[C@@H](Cc2ccccc2C)NC(=O)[C@H](CC(N)=O)NC1=O [Example 73, Ac-Arg-cyclo(Glu-Asn-D-Phe(2-Me)-Arg-Trp-Orn)-NH2]

Second part, the compound before the results:

Compound | EC50 (hMC4-R [1]; [3]) | Emax (hMC4-R [1]; [3]) | EC50 (hMC4-R [1]; [4]) | Emax (hMC4-R [1]; [4]) | Ki (hMC4-R [2])
COc1ccc(C[C@H]2NC(=O)[C@H](CCN)NC(=O)[C@@H](NC(=O)[C@H](CCCNC(=N)N)NC(C)=O)CCC(=O)NCCC[C@@H](C(N)=O)NC(=O)[C@H](Cc3c[nH]c4ccccc34)NC(=O)[C@H](CCCNC(=N)N)NC2=O)cc1OC [Example 25, Ac-Arg-cyclo(Glu-Dab-D-Phe(3,4-diOMe)-Arg-Trp-Orn)-NH2] | 75000 pM | 23% | 2000 pM | 94% | 35000 pM
CC(=O)N[C@@H](CCCNC(=N)N)C(=O)N[C@H]1CCC(=O)NCCC[C@@H](C(N)=O)NC(=O)[C@H](Cc2c[nH]c3ccccc23)NC(=O)[C@H](CCCNC(=N)N)NC(=O)[C@@H](Cc2ccc(F)c(F)c2)NC(=O)[C@H](CCN)NC1=O [Example 26, Ac-Arg-cyclo(Glu-Dab-D-Phe(3,4-diF)-Arg-Trp-Orn)-NH2] | 125 pM | 74% | 120 pM | 90% | 300 pM
CC(=O)N[C@@H](CCCNC(=N)N)C(=O)N[C@H]1CCC(=O)NCCC[C@@H](C(N)=O)NC(=O)[C@H](Cc2c[nH]c3ccccc23)NC(=O)[C@H](CCCNC(=N)N)NC(=O)[C@@H](Cc2cc(F)c(F)c(F)c2)NC(=O)[C@H](CCN)NC1=O [Example 27, Ac-Arg-cyclo(Glu-Dab-D-Phe(3,4,5-triF)-Arg-Trp-Orn)-NH2] | 700 pM | 37% | 330 pM | 97% | 667 pM
CC(=O)N[C@@H](CCCNC(=N)N)C(=O)N[C@H]1CCC(=O)NCCC[C@@H](C(N)=O)NC(=O)[C@H](Cc2c[nH]c3ccccc23)NC(=O)[C@H](CCCNC(=N)N)NC(=O)[C@@H](Cc2ccc(N)cc2)NC(=O)[C@H](CCN)NC1=O [Example 28, Ac-Arg-cyclo(Glu-Dab-D-Phe(4-NH2)-Arg-Trp-Orn)-NH2] | 29000 pM | 35% | 600 pM | 94% | 48000 pM
CC(=O)N[C@@H](CCCNC(=N)N)C(=O)N[C@H]1CCC(=O)NCCC[C@@H](C(N)=O)NC(=O)[C@H](Cc2c[nH]c3ccccc23)NC(=O)[C@H](CCCNC(=N)N)NC(=O)[C@@H](Cc2ccc(-c3ccccc3)cc2)NC(=O)[C@H](CCN)NC1=O [Example 29, Ac-Arg-cyclo(Glu-Dab-D-Phe(4-Ph)-Arg-Trp-Orn)-NH2] | 3000 pM | 14% | 800 pM | 100% | 500 pM
CC(=O)N[C@@H](CCCNC(=N)N)C(=O)N[C@H]1CCC(=O)NCCC[C@@H](C(N)=O)NC(=O)[C@H](Cc2c[nH]c3ccccc23)NC(=O)[C@H](CCCNC(=N)N)NC(=O)[C@@H](Cc2ccc(C(C)(C)C)cc2)NC(=O)[C@H](CCN)NC1=O [Example 30, Ac-Arg-cyclo(Glu-Dab-D-Phe(4-tBu)-Arg-Trp-Orn)-NH2] |  | 2% | 25000 pM | 9% | 4000 pM
CC(=O)N[C@@H](CCCNC(=N)N)C(=O)N[C@H]1CCC(=O)NCCC[C@@H](C(N)=O)NC(=O)[C@H](Cc2c[nH]c3ccccc23)NC(=O)[C@H](CCCNC(=N)N)NC(=O)[C@@H](Cc2cccc(Cl)c2)NC(=O)[C@H](CO)NC1=O [Example 35, Ac-Arg-cyclo(Glu-Ser-D-Phe(3-Cl)-Arg-Trp-Orn)-NH2] |  | 6% | 1000 pM | 84% | 10000 pM
